Data on 24 molecules can be found in BindingDB's records for doi:10.7270/Q23B5XKP (Vanderbilt Screening Center for GPCRs, Ion Channels and …, 2009).

For one experiment, the target named is T1, Solute carrier family 12 member 5 (Homo sapiens, UniProt Q9H2X9).
T1 sequence (Q9H2X9 whole entry): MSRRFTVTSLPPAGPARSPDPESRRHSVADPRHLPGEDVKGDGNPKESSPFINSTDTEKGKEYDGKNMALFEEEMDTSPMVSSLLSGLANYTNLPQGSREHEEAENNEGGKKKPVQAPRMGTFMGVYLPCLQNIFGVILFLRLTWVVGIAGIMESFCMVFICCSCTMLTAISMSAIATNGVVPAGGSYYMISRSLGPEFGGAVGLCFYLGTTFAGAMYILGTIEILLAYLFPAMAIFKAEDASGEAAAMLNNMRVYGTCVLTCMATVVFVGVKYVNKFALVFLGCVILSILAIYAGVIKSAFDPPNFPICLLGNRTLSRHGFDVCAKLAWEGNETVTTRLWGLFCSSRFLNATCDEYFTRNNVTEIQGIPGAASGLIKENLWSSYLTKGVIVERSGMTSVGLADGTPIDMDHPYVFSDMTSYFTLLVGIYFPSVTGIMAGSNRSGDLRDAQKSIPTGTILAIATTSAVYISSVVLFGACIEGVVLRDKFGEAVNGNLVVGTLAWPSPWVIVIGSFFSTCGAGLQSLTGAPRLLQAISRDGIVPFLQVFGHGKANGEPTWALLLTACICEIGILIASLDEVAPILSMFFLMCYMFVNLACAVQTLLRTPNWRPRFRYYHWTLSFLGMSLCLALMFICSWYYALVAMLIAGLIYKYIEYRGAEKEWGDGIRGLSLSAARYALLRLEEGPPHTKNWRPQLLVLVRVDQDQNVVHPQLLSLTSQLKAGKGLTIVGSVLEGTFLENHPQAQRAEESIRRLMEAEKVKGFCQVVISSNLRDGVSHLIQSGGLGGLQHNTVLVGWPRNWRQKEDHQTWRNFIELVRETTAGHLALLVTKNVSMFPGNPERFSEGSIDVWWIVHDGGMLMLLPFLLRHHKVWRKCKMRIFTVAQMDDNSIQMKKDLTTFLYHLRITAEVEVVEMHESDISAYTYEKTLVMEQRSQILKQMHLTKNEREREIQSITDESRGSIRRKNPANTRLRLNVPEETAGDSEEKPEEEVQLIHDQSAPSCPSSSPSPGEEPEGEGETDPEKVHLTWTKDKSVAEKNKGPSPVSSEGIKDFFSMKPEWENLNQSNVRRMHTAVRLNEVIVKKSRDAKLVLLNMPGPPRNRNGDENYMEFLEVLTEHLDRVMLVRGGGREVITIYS
Nature of the experiment: KCC2 cotransport modulators, dose response, cell-based, assay 2 (AID 1723).
Settings: not given
Molecule `O=[N+]([O-])c1ccc(-c2cn(-c3ccccc3F)c(=S)[nH]2)cc1` had an EC50 of 0.616 µM.

`CC(=O)c1cccc(NC(=S)NC(=O)c2ccc(C)cc2)c1` [MLS000687464] yielded an EC50 of 1.19 µM.

The molecule `S=C(NCCc1ccccc1)NN=Cc1cccc(Cl)c1Cl` [1-[(2,3-dichlorobenzylidene)amino]-3-phenethyl-thiourea] returned an EC50 of 10.1 µM.

In the case of `CC(=NNC(=O)c1ccc2c(c1)OCO2)c1ccc(Br)s1` [MLS000666595], the EC50 is 726 µM.

Take `O=c1c2ccccc2[nH]c(=S)n1CCN1CCC(=C(c2ccc(F)cc2)c2ccc(F)cc2)CC1` [SMR000058550]: a half-maximal response (EC50) required 13.3 µM.

For `CCOc1ccc2nc(Sc3cc(O)n(-c4cccc(OC)c4)c3O)sc2c1` [3-(6-Ethoxy-benzothiazol-2-ylsulfanyl)-1-(3-methoxy-phenyl)-pyrrolidine-2,5-dione], the EC50 turned out to be 7.89 µM.

In turn, `O=C(NC(=S)Nc1nc(-c2cccc([N+](=O)[O-])c2)cs1)c1ccccc1Cl` [2-chloranyl-N-[[4-(3-nitrophenyl)-1,3-thiazol-2-yl]carbamothioyl]benzamide] yielded an EC50 of 139 µM.

`COc1cc(NC(=S)NC(=O)c2ccco2)ccc1NC(=O)C(C)C` [MLS000672338] came in with an EC50 of 7.99 µM.

On to `N=C1SCC(=O)N1c1ncc(Cc2cccc(Cl)c2)s1` [2-azanylidene-3-[5-[(3-chlorophenyl)methyl]-1,3-thiazol-2-yl]-1,3-thiazolidin-4-one], for which a half-maximal response (EC50) required 2.86 µM.

Molecule `Cc1cccc(N2CCN(C(=O)CCCn3c(=S)[nH]c4cc5c(cc4c3=O)OCO5)CC2)c1C` [MLS000095366] came in with an EC50 of 11.2 µM.

Molecule `NC(=S)NN=C1C(=O)N(Cc2ccc(F)cc2)c2ccccc21` [1-[(Z)-[1-[(4-fluorophenyl)methyl]-2-oxidanylidene-indol-3-ylidene]amino]thiourea] gave an EC50 of 7.58 µM. This EC50 and that of the molecule before are within 1.5-fold of each other.

Regarding `CCOc1cccc(C(=O)NC(=S)Nc2cccc(C)c2)c1` [3-ethoxy-N-(m-tolylthiocarbamoyl)benzamide], the response was half-maximal at 1.58 µM (EC50).

`Fc1cccc(F)c1C=NNC(=S)Nc1cccnc1` [1-[(2,6-difluorobenzylidene)amino]-3-(3-pyridyl)thiourea] returned a concentration giving a half-maximal response (EC50) of 6.66 µM.

The molecule `COC(=O)[C@@H](NC(=O)O[C@@H]1C(=O)c2ccc(OC)cc2O[C@H]1c1cccc(C(F)(F)F)c1)C(C)C` [(2S)-2-[[(2S,3S)-4-keto-7-methoxy-2-[3-(trifluoromethyl)phenyl]chroman-3-yl]oxycarbonylamino]-3-methyl-butyric acid methyl ester] showed an EC50 of 0.515 µM. Compared with the last molecule, the EC50 is about 13-fold lower.

For the molecule `COc1ccc(Cn2c(=S)[nH]c3ccccc32)cc1` [1-(4-methoxybenzyl)-1H-benzimidazole-2-thiol], a half-maximal response (EC50) required 0.401 µM.

`O=C1OC(c2ccc(O)cc2)(c2ccc(O)cc2)c2ccccc21`: the EC50 is 11.8 µM. Against the preceding molecule, the EC50 is about 29-fold higher.

Regarding `CC(C)c1ccc(OCC(=O)NNC(=O)c2cnccn2)cc1` [MLS000332605], the EC50 stood at 15.6 µM.

Take `S=c1nc(-c2ccc3c(c2)CCO3)cc[nH]1`: the EC50 came out at 6.1 µM.

As to `Cc1[nH]n2c(=O)cc(C(C)C)nc2c1-c1ccccc1`, the midpoint of the response, the EC50, lay at 21 µM.

`Oc1ccccc1CN=Nc1nc2ccccc2o1` [(6E)-6-[(1,3-benzoxazol-2-ylhydrazo)methylidene]-1-cyclohexa-2,4-dienone] showed an EC50 of 31.1 µM.

With `O=C(C=Cc1ccccc1)CC(=O)c1ccccc1O` [MLS000627068], it took 62.4 µM to reach a half-maximal effect (EC50).

Staying with this experiment, now noted: inactive by the depositor's call.
In turn, `O=C(NC(=S)Nc1cccc2cccnc12)c1cccs1` [MLS000688132] gave an EC50 of 0.124 µM.

As for `COc1ccccc1N1CCN(C(=S)NC(=O)/C=C/c2ccccc2)CC1` [(E)-N-[4-(2-Methoxy-phenyl)-piperazine-1-carbothioyl]-3-phenyl-acrylamide], the EC50 is 1.34 µM. This EC50 is about 11-fold higher than that of the molecule before.

The molecule `Cc1ccc(-c2n[nH]c(=S)n2NC=CCc2ccccc2[N+](=O)[O-])cc1` gave an EC50 of 0.807 µM.
